In the Biogen ADME set (Fang et al. 2023):
Converted amounts (≈) assume the structure as drawn.

Conditions: for aqueous solubility: pH 6.8

MDR1-MDCK efflux ratio	intrinsic clearance, human liver microsomes [mL/min/kg]	intrinsic clearance, rat liver microsomes [mL/min/kg]	aqueous solubility [µg/mL]	fraction unbound, human plasma	fraction unbound, rat plasma	Compound
4.05	≤ 4.74	≤ 10.7	–	–	–	O=C(O)c1ccc(CCC(=O)N2CCc3c(F)cc(F)cc3C2)cc1
26.3	≤ 4.74	45.2	74.1	–	–	COc1cccc(C(=O)C[n+]2cc(-c3ccc(F)cc3)n(C)c2N)c1
6.55	373	704	16.6 (≈ 31.6 µM)	–	–	Cc1ccc(-n2nc(C(C)(C)C)cc2NC(=O)Nc2ccc(OCCN3CCOCC3)c3ccccc23)cc1
0.748	112	807	1.7 (≈ 4.49 µM)	–	–	O=C(CN1CCCN(c2ccc(C(F)(F)F)cn2)CC1)Nc1ccccc1
0.605	≤ 4.74	≤ 10.7	32.5 (≈ 139 µM)	–	–	CNC(=O)c1cc(C2CCN(C)CC2)ncn1
–	506	2640	59.8 (≈ 174 µM)	–	–	Cc1cccc(NC(=O)CN2C(=O)N(C)C3(CCCCC3)C2=O)c1C
24	17.4	190	–	–	–	Cc1cc2nc(CCC(=O)N3CCc4n[nH]cc4C3)[nH]c2cc1C
0.397	8.57	209	87.4 (≈ 288 µM)	–	–	CN1CCC(OC(=O)Nc2ccc(Cl)c(Cl)c2)CC1
1.13	≤ 4.74	≤ 10.7	1.15 (≈ 3.22 µM)	–	–	FC(F)(F)c1nc(Nc2ccc(-n3cnnn3)cc2)c2ccccc2n1
2.44	17.2	188	50.2 (≈ 160 µM)	–	–	Cc1cccc(-n2c(S)nnc2CNc2ccc(F)cc2)c1
4.31	≤ 4.74	≤ 10.7	–	–	–	COCC(C)(C)C(=O)N1CCCC2(CCNCC2)CC1
28.2	103	924	67.7 (≈ 173 µM)	–	–	CC(=O)N1CCCN(C(=O)Nc2ccc(N(C)C3CCCCC3)c(F)c2)CC1
0.659	≤ 4.74	≤ 10.7	62.3 (≈ 217 µM)	–	–	O=C(NCC(=O)N1CCN(C2CC2)CC1)c1ccccc1
2.09	190	1520	–	–	–	c1ccc(N2CCOCC2)c(CNc2cc(N3CCCC3)ncn2)c1
1.98	≤ 4.74	61.5	44.8 (≈ 132 µM)	0.0156	0.12	Cc1nnc(-c2ccc3occ(-c4ccc(S(C)=O)cc4)c3c2)o1 (centres undefined)
8.08	≤ 4.74	≤ 10.7	50.7 (≈ 155 µM)	–	–	CC(C)[C@H](NC(=O)c1c(F)cccc1F)C(=O)N1CCOCC1
0.802	69.6	313	–	0.0469	0.0708	C#C[C@@](C)(CC)NC(=O)c1cc(F)cnc1NC1CC(F)(F)C1
93.4	≤ 4.74	82.3	–	0.363	0.31	CN1C(N)=N[C@](C)(c2cc(NC(=O)c3ccc(F)cn3)ccc2F)CS1(=O)=O
51.8	7.58	35.6	73.2 (≈ 135 µM)	–	–	C[C@@H](c1ccc2ccc(O[C@H]3CC[C@@H](C(F)(F)F)CC3)c(C(F)(F)F)c2c1)N1C2CCC1CC(C(=O)O)C2 (some centres undefined)
38.8	7.28	153	–	–	–	CC(=O)N1CCN([C@H]2CCN(C(=O)c3cc4cc(C)ccc4o3)CC[C@@H]2O)CC1
1.51	8.05	1030	34.1 (≈ 96.4 µM)	–	–	COCCc1nc(-c2cnc(C3CC3)nc2)n(Cc2ccc(F)cc2)n1
1.76	4.81	15.7	–	–	–	N#CCN1CCC(CNC(=O)c2c(F)ccc(F)c2F)CC1
0.668	≤ 4.74	12.6	32.6 (≈ 155 µM)	–	–	COc1cc2nc(N)sc2cc1OC
0.971	27.9	375	46.2 (≈ 135 µM)	–	–	CC(C)(C)n1ncc(C(=O)N2CCCn3ncnc32)c1C(F)(F)F
1.03	≤ 4.74	≤ 10.7	23.4 (≈ 82.8 µM)	–	–	Cn1cc(NC(=O)c2cn(Cc3ccccc3)nn2)cn1
1.8	12.4	1100	54.4 (≈ 148 µM)	–	–	Cc1ccc(NS(C)(=O)=O)c(C(=O)N(C)c2ccc3ccccc3c2)c1
–	–	–	1.4 (≈ 4.25 µM)	–	–	CCN(c1ccccc1)S(=O)(=O)c1ccc(C(F)(F)F)cc1

MDR1-MDCK efflux ratio	intrinsic clearance, human liver microsomes [mL/min/kg]	intrinsic clearance, rat liver microsomes [mL/min/kg]	aqueous solubility [µg/mL]	fraction unbound, human plasma	fraction unbound, rat plasma	Compound
–	8.57	191	2.5 (≈ 8.03 µM)	0.0539	0.0286	CC(C)(C)c1ccc(-c2nc3n(c(=O)c2C#N)CCS3)cc1
0.561	25.7	2240	–	–	–	CCn1c(CN2CCCCCC2)nc2ccccc2c1=O
1.09	27.8	585	66.6 (≈ 177 µM)	–	–	O=C(NCCNc1ncccc1C(F)(F)F)c1cnc2ccccn2c1=O
–	187	1320	31.4 (≈ 116 µM)	–	–	Cc1ccc(NC(=O)[C@H]2COc3ccccc3O2)nc1
0.386	44.1	558	–	0.0044	0.00657	COc1ccc(CNC(=O)c2sc3nc(C)cc(C)c3c2N)cc1
21.9	–	–	0.3 (≈ 0.615 µM)	–	–	CC(=O)c1cnc2ccc(-c3cc(Cl)c(O)c(Cl)c3)nc2c1N[C@H]1CC[C@H](CN(C)C)CC1
1.2	10.7	114	6.21 (≈ 17.4 µM)	–	–	c1ccc(-c2n[nH]c(C3CCN(c4cnc5ccccc5n4)CC3)n2)cc1
65.9	≤ 4.74	53.4	–	–	–	Cc1cc(C)c2ccc(C(=O)N3CCN(c4ncc[nH]c4=O)CC3)cc2n1
8.19	≤ 4.74	31.2	51.4 (≈ 109 µM)	–	–	Cc1sc(C)c(C(=O)NC2(c3ccc(C(=O)O)cc3)CC2)c1Cc1ccc(C(F)(F)F)cc1
–	131	504	53.4 (≈ 143 µM)	–	–	COc1cc2c(cc1OC)CN(CN1C(=O)c3cccc4cccc1c34)CC2
1.19	≤ 4.74	20.7	–	–	–	CC(C)(C)OC(=O)c1ccc(-n2[nH]cc(-n3ccnn3)c2=O)nc1
1.75	453	1060	–	–	–	COc1ccc(Cl)cc1NC(=O)CN1CCCN(c2ccc(C(F)(F)F)cn2)CC1
–	31.9	1090	50.4 (≈ 162 µM)	0.173	0.156	Cn1c(C2CC2)nc2c1CCN(c1ncnc3ccsc13)C2
1.35	25	1310	–	–	–	c1cc(CNc2ncc(-c3cnccn3)c(C3CC3)n2)ccn1
90.9	51.7	199	33.6 (≈ 100 µM)	–	–	CCCn1ncc2[nH]c(-c3cc(Cn4cncn4)c(C)cc3C)nc21
0.425	≤ 4.74	≤ 10.7	69.3 (≈ 229 µM)	–	–	CC(C)Cc1sc(N)nc1-c1ccc(P(=O)(O)O)o1
8.46	≤ 4.74	30.7	–	–	–	Cc1cc(C)c2c(C(=O)N3CC4(CNC(=O)N4)C3)cc(C)nc2c1
14.2	43.7	413	–	–	–	CC[C@@H]1C(=O)N(C)c2cnc(-n3ccnc3-c3ccc(F)cc3)nc2N1c1ccn(C)n1
–	≤ 4.74	17.7	–	–	–	Cc1ccccc1S(=O)(=O)N[C@@H]1CC[C@@H](O)[C@@H]1O
–	130	77.3	–	–	–	Cc1cc(NC(=O)c2cc(F)cc(F)c2)sn1
1.99	7.84	17.7	39.5 (≈ 79.1 µM)	–	–	CC1CCN([C@H](c2ccc(F)cc2)c2ccc([C@@H](C)C(=O)O)cc2-c2ccc(C(F)(F)F)cc2)CC1
–	–	–	0.35 (≈ 1.09 µM)	–	–	COc1cccc(/C=C2/N=C(c3ccccc3C)NC2=O)c1OC
0.714	11	231	39.8 (≈ 163 µM)	–	–	N#CCCN(c1ncnc2sccc12)C1CC1
8.27	12.6	707	–	–	–	CCCc1ccc(-c2cccc(C(=O)N3CCN(CC(N)=O)CC3)c2)cc1
1.13	6.66	57.2	–	–	–	CNc1ncc(CN(C)CCN2CCCCC2)cn1
0.928	≤ 4.74	48.3	39 (≈ 90.4 µM)	–	–	COc1cc(OC)cc(-c2nnc(SCC(=O)Nc3cccc(C(=O)O)c3)s2)c1
